These results are taken from patent US9790169B2, “IDO inhibitors” (BRISTOL-MYERS SQUIBB COMPANY, priority 2015, dated 2017).

The target in this experiment is human IDO1 (Homo sapiens, UniProt P14902). Put plainly: Assessment of human IDO-1 inhibitory activity in Hela cells (Interferon-gamma stimulated HeLa cells, Ehrlich reagent, absorbance 490 nm). The class given is cell-based. On the set-up: endogenous in cells; host or cells: HeLa cells stimulated with interferon-gamma. As to conditions: Hela Human IDO-1 cellular assay. On the procedure:
Exemplary compounds were tested for inhibition of IDO activity.
Assessment of Human IDO-1 Inhibitory Activity in Hela Cells
HeLa cells were seeded at 20,000 cells per 30 μL per well with RPMI/phenol red free media containing 10% FBS in a 384-well tissue culture plate (black with clear bottoms). 50 nL of compound was added to cells and incubated at 37° C. for one hour. 20 μL of the recombinant human Interferon-gamma (R&D System, Cat. #285-IF, at final concentration of 10 ng/ml) or recombinant murine Interferon-gamma (PEPROTECH® Inc., Cat. #315-05, final concentration of 5 ng/ml) was added to activate IDO signaling. The cells were incubated for 18 hours in 37° C. incubator with 5% CO2.
Compound treatment was stopped by adding 5 μl trichloroacetic acid to a final concentration of 3%. Subsequently, the cell plate was further incubated at 50° C. for 30 minute. An equal volume supernatant (20 μL) and 2% (w/v) Ehrlich reagent (4-dimethylaminobenzaldehyde) in glacial acetic acid were mixed in a new clear bottom 384-well plate. This plate was incubated at room temperature for 30 minutes. Absorbance at 490 nm was measured on Envision plate reader.
Compound IC50 values were calculated using counts from unstimulated (no INF-gamma treatment) wells as 100% inhibition. INF-gamma treatment without compound treatment as 0% inhibition.

Chain of human IDO1 (P14902 whole entry): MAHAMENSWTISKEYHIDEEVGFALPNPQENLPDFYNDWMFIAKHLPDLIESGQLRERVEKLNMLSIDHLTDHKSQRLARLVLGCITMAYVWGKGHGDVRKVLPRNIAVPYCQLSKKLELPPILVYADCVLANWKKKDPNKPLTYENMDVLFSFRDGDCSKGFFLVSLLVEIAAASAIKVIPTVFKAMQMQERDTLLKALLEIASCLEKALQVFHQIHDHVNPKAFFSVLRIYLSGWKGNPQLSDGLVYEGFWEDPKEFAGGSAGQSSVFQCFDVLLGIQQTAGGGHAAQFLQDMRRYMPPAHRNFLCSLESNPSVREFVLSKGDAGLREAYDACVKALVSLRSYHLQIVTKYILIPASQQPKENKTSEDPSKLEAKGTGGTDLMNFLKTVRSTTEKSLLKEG

Turning to `CCN(c1ccc(C(CC(=O)O)C2CC2)cc1Nc1ccc(Cl)cc1)C1CCOCC1` (single isomer, unassigned) [Example 33 Enantiomer 1, 3-(3-((4-Chlorophenyl)amino)-4-(ethyl(tetrahydro-2H-pyran-4-yl)amino)phenyl)-3-cyclopropylpropanoic acid], the IC50 (commonly the concentration that inhibits the measured activity by half) was < 5 nM. On to `CCN(c1ccc(C(CC(=O)O)C2CC2)cc1Nc1ccc(C#N)cc1)C1CCOCC1` (single isomer, unassigned) [Example 34, 3-(3-((4-cyanophenyl)amino)-4-(ethyl(tetrahydro-2H-pyran-4-yl)amino)phenyl)-3-cyclopropylpropanoic acid], for which the IC50 was < 5 nM. As for `CCN(c1ccc(C(CC(=O)O)C2CC2)cc1Nc1cnc(OC)nc1)C1CCOCC1` (single isomer, unassigned) [Example 35, 3-cyclopropyl-3-(4-(ethyl(tetrahydro-2H-pyran-4-yl)amino)-3-((2-methoxypyrimidin-5-yl)amino)phenyl)propanoic acid], the figure is < 50 nM. With `CCOc1ncc(Nc2cc(C(CC(=O)O)C3CC3)ccc2N(CC)C2CCOCC2)cn1` (single isomer, unassigned) [Example 36, 3-cyclopropyl-3-(3-((2-ethoxypyrimidin-5-yl)amino)-4-(ethyl(tetrahydro-2H-pyran-4-yl)amino)phenyl)propanoic acid] the figure was < 50 nM; with `CCN(c1ccc(C(CC(=O)O)C2CC2)cc1NC(=O)Nc1ccc(C)cc1)C1CCOCC1` (single isomer, unassigned) [Example 40 Enantiomer 1, 3-Cyclopropyl-3-(4-(ethyl(tetrahydro-2H-pyran-4-yl)amino)-3-(3-(p-tolyl)ureido)phenyl)propanoic acid], < 5 nM; with `CCN(c1ccc(C(CC(=O)O)C2CC2)cc1NC(=O)Nc1ccc(C)cc1)C1CCOCC1` (single isomer, unassigned) [Example 40 Enantiomer 2, 3-Cyclopropyl-3-(4-(ethyl(tetrahydro-2H-pyran-4-yl)amino)-3-(3-(p-tolyl)ureido)phenyl)propanoic acid], < 50 nM.

Turning to `CCC(CC(=O)O)c1ccc(N2CCC(C)CC2)c(Nc2ccc(C#N)cc2)c1` (single isomer, unassigned) [Example 41 Enantiomer 1, 3-(3-((4-Cyanophenyl)amino)-4-(4-methylpiperidin-1-yl)phenyl)pentanoic acid], the IC50 is < 50 nM. With `CCC(CC(=O)O)c1ccc(N2CCC(C)CC2)c(Nc2cnc(OC)nc2)c1` (single isomer, unassigned) [Example 42, 3-(3-((2-methoxypyrimidin-5-yl)amino)-4-(4-methylpiperidin-1-yl)phenyl)pentanoic acid] the figure was > 50 nM; with `CCOc1ncc(Nc2cc(C(CC)CC(=O)O)ccc2N2CCC(C)CC2)cn1` (single isomer, unassigned) [Example 43, 3-(3-((2-ethoxypyrimidin-5-yl)amino)-4-(4-methylpiperidin-1-yl)phenyl)pentanoic acid], > 50 nM; with `CCC(CC(=O)O)c1ccc(N2CCC(C)CC2)c(NC(=O)Nc2ccc(C)cc2)c1` (single isomer, unassigned) [Example 46 Enantiomer 1, 3-(4-(4-Methylpiperidin-1-yl)-3-(3-(p-tolyl)ureido)phenyl)pentanoic acid], > 50 nM. Turning to `CCOc1ncc(Nc2cc(C(CC)CC(=O)O)ccc2N2CCC(c3ccccc3)CC2)cn1` (single isomer, unassigned) [Example 47 Enantiomer 1, 3-(3-((2-Ethoxypyrimidin-5-yl)amino)-4-(4-phenylpiperidin-1-yl)phenyl)pentanoic acid], the IC50 was < 5 nM.

With `CCOc1ncc(Nc2cc(C(CC)CC(=O)O)ccc2N2CCC(c3ccccc3)CC2)cn1` (single isomer, unassigned) [Example 47 Enantiomer 2, 3-(3-((2-Ethoxypyrimidin-5-yl)amino)-4-(4-phenylpiperidin-1-yl)phenyl)pentanoic acid], the IC50 is < 50 nM.

On to `CC(CC(=O)O)c1ccc(N(CC(C)(C)O)C2CCCCC2)c(Nc2ccc(Cl)cc2)c1` (single isomer, unassigned) [Example 48 Enantiomer 1, 3-(3-((4-Chlorophenyl)amino)-4-(cyclohexyl(2-hydroxy-2-methylpropyl)amino)phenyl)butanoic acid], for which the IC50 is < 5 nM.

`CC(CC(=O)O)c1ccc(N(CC(C)(C)O)C2CCCCC2)c(Nc2ccc3c(c2)OC(F)(F)O3)c1` (single isomer, unassigned) [Example 49, 3-(4-(cyclohexyl(2-hydroxy-2-methylpropyl)amino)-3-((2,2-difluorobenzo[d][1,3]dioxol-5-yl)amino)phenyl)butanoic acid]: the IC50 was < 50 nM.

Consider `CCC(CC(=O)O)c1ccc(N(CC)C2CCCOC2)c(Nc2ccc(C#N)cc2)c1` (single isomer, unassigned) [Example 61, 3-(3-((4-cyanophenyl)amino)-4-(ethyl(tetrahydro-2H-pyran-3-yl)amino)phenyl)pentanoic acid], for which the IC50 was < 5 nM. With `CCC(CC(=O)O)c1ccc(N(CC)C2CCCOC2)c(Nc2cnc(OC)nc2)c1` (single isomer, unassigned) [Example 62, 3-(4-(ethyl(tetrahydro-2H-pyran-3-yl)amino)-3-((2-methoxypyrimidin-5-yl)amino)phenyl)pentanoic acid] the figure was < 5 nM. With `CCOc1ncc(Nc2cc(C(CC)CC(=O)O)ccc2N(CC)C2CCCOC2)cn1` (single isomer, unassigned) [Example 63, 3-(3-((2-ethoxypyrimidin-5-yl)amino)-4-(ethyl(tetrahydro-2H-pyran-3-yl)amino)phenyl)pentanoic acid] the figure was < 5 nM. With `CCC(CC(=O)O)c1ccc(N(CC)C2CCCOC2)c(Nc2cnc(OC)nc2)c1` (single isomer, unassigned) [Example 65, 3-(4-(ethyl(tetrahydro-2H-pyran-3-yl)amino)-3-((2-methoxypyrimidin-5-yl)amino)phenyl)pentanoic acid] the figure was < 5 nM. In the case of `CCC(CC(=O)O)c1ccc(N(CC)C2CCCOC2)c(Nc2cnc(OC)nc2)c1` (single isomer, unassigned) [Example 68, 3-(4-(ethyl(tetrahydro-2H-pyran-3-yl)amino)-3-((2-methoxypyrimidin-5-yl)amino)phenyl)pentanoic acid], the half-inhibitory concentration (IC50) was < 50 nM. With `CCC(CC(=O)O)c1cc(F)c(N(CC)C2CCOCC2)c(Nc2ccc(Cl)cc2)c1` (single isomer, unassigned) [Example 133, 3-(3-((4-Chlorophenyl)amino)-4-(ethyl(tetrahydro-2H-pyran-4-yl)amino)-5-fluorophenyl)pentanoic acid] the figure was < 5 nM; with `CCC(CC(=O)O)c1cc(F)c(N(CC)C2CCOCC2)c(Nc2cnc(OC)nc2)c1` (single isomer, unassigned) [Example 135, 3-(4-(ethyl(tetrahydro-2H-pyran-4-yl)amino)-3-fluoro-5-((2-methoxypyrimidin-5-yl)amino)phenyl) pentanoic acid], < 50 nM; with `CCC(CC(=O)O)c1cc(F)c(N(CC)C2CCOCC2)c(Nc2cnc(OCC3CC3)nc2)c1` (single isomer, unassigned) [Example 136, 3-(3-((2-(cyclopropylmethoxy)pyrimidin-5-yl)amino)-4-(ethyl(tetrahydro-2H-pyran-4-yl)amino)-5-fluorophenyl)pentanoic acid], < 50 nM. With `CCC(CC(=O)O)c1cc(F)c(N(CC)C2CCOCC2)c(Nc2ccc(OC)nc2)c1` (single isomer, unassigned) [Example 137, 3-(4-(ethyl(tetrahydro-2H-pyran-4-yl)amino)-3-fluoro-5-((6-methoxypyridin-3-yl)amino)phenyl) pentanoic acid] the figure was < 50 nM. As for `CCC(CC(=O)O)c1cc(F)c(N(CC)C2CCOCC2)c(Nc2ccc(C#N)cn2)c1` (single isomer, unassigned) [Example 138, 3-(3-((5-cyanopyridin-2-yl)amino)-4-(ethyl (tetrahydro-2H-pyran-4-yl)amino)-5-fluorophenyl) pentanoic acid], the figure is < 5 nM; as for `CCC(CC(=O)O)c1cc(F)c(N(CC)C2CCOCC2)c(Nc2cnc(OC)nc2)c1` (single isomer, unassigned) [Example 140, 3-(4-(ethyl(tetrahydro-2H-pyran-4-yl)amino)-3-fluoro-5-((2-methoxypyrimidin-5-yl)amino)phenyl) pentanoic acid], < 5 nM; as for `CCC(CC(=O)O)c1cc(F)c(N(CC)C2CCOCC2)c(Nc2cnc(OCC3CC3)nc2)c1` (single isomer, unassigned) [Example 141, 3-(3-((2-(cyclopropylmethoxy)pyrimidin-5-yl)amino)-4-(ethyl(tetrahydro-2H-pyran-4-yl)amino)-5-fluorophenyl)pentanoic acid], < 5 nM. `CCC(CC(=O)O)c1cc(F)c(N(CC)C2CCOCC2)c(Nc2ccc(OC)nc2)c1` (single isomer, unassigned) [Example 142, 3-(4-(ethyl(tetrahydro-2H-pyran-4-yl)amino)-3-fluoro-5-((6-methoxypyridin-3-yl)amino)phenyl) pentanoic acid]: the IC50 was < 5 nM.
